In article PMC9697519, “New Theonellapeptolides from Indonesian Marine Sponge Theonella swinhoei as Anti-Austerity Agents” (Marine Drugs, 2022):
pIC50: −log10 of the molar value. Read-outs that look alike come from different tables or passages of the source. *1 amine or outer side, *2 acyl side, *3 side chain or, on linkers, in order; H or OH if unused. Where a SMILES comes first, the peptide text is derived from it. Bridges are numbered along the chain shown (N, C = ends). [ ]: non-standard residue; d: D form. The star is where a group is joined. dNMeaIle = CC[C@H](C)[C@@H](NC)C(=O)O; d(aIle) = CC[C@H](C)[C@@H](N)C(=O)O; NMeI = CC[C@H](C)[C@H](NC)C(=O)O; NMeβAla = CN(CCC(=O)[*:2])[*:1]; dNMeL = CN[C@H](CC(C)C)C(=O)O; dNMeV = CN[C@@H](C(=O)O)C(C)C; NMeV = CN[C@H](C(=O)O)C(C)C; Methoxyacetyl = COCC(=O)*; NMeA = CN[C@@H](C)C(=O)O; βAla = NCCC(=O)O

Key:
[1] = test system: Bacillus cereus NBRC 15305
Experimental: (§1) Previously, three theonellapeptolide members capped with a unique acyl group at their N-termini such as methylsulfinylacetyl, methylsulfanylacetyl, and acetyl were isolated by Tsuda et al. from Okinawan marine sponge Theonella sp.. Furthermore, the antibacterial activity of these variants was evaluated against four bacterial and six fungal strains. […] To the best of our knowledge, there is no report on the antibacterial activity of theonellapeptolides with methoxyacetyl group. This encouraged us to investigate the antibacterial activity of 1–6 against the Gram-negative bacterium Escherichia coli JW5503 and the Gram-positive bacteria Bacillus cereus NBRC 15305 and Kocuria rhizophila NBRC 12708.
(§2) After incubation for 22 h (30 °C), the obtained optical density was recorded using Tecan infinite® M200 plate reader at 600 nm to determine percent growth inhibition.

[2] = test system: Kocuria rhizophila NBRC 12708
Experimental: as §1, §2

Escherichia coli JW5503 = test system: Escherichia coli JW5503
Experimental: as §1, §2

[3] = test system: HepG2 (human liver cancer cells); conditions: 24 h
Experimental: (§3) Finally, the anti-austerity activity on two other different cancer cell lines was studied. Preferential cytotoxicity was assessed in a nutrient-deprived medium. Esumi et al. hypothesized that tolerance to nutrient deprivation as well as angiogenesis might be an important factor in tumor progression under hypovascular condition.
(§4) Briefly, MIA PaCa-2, HepG2 and MCF-7 Cells (2 × 10^4 cells/well) were seeded in 96-well plates and incubated in fresh DMEM. The cells were washed with Dulbecco’s phosphate-buffered saline (PBS) before the medium was replaced with DMEM or NDM containing serial dilutions of the test samples. After 24 h of incubation, the cells were washed with PBS, and 100 μL of DMEM containing 10% WST-8 cell counting kit solution was added to each well. After 3 h of incubation, the absorbance was measured at 450 nm. Cell viability was calculated from the mean values for three wells. The preferential cytotoxicity was expressed as the concentration at which 50% of cells died preferentially in NDM (PC50).

[4] = test system: MCF-7 (human breast cancer cells); conditions: 24 h
Experimental: as §3, §4

[5] = test system: human pancreatic cancer cell line MIA PaCa-2; conditions: 24 h
Experimental: Data are presented as preferential cytotoxicity (PC50) values, which represent the concentration that kills 50% of cancer cells in a nutrient-deprived medium (NDM) without any toxicity in a nutrient-rich medium DMEM (Dulbecco’s Modified Eagle Medium).
as §4
Pancreatic cancer cells (MIA PaCa-2 cells) were kindly provided by Dr. Suresh Awale, an Associate Professor at Institute of Natural Medicine, University Toyama, Toyama, Japan. MIA PaCa-2 (RBRC-RCB2094), human pancreatic cancer cell lines were purchased from Riken BRC cell bank.

[6] = read-out: IC50 in DMEM, HepG2, nutrient-rich DMEM, WST-8, absorbance 450 nm, mean of three wells
[7] = read-out: PC50 in NDM, HepG2, preferential cytotoxicity, nutrient-deprived medium (NDM), WST-8, mean of three wells
[8] = read-out: IC50 in DMEM, MCF7, nutrient-rich DMEM, WST-8, absorbance 450 nm, mean of three wells
[9] = read-out: PC50 in NDM, MCF7, preferential cytotoxicity, nutrient-deprived medium (NDM), WST-8, mean of three wells
[10] = read-out: IC50 in DMEM, MIA PaCa-2, nutrient-rich DMEM, WST-8, absorbance 450 nm, mean of three wells
[11] = read-out: PC50 in NDM, MIA PaCa-2, preferential cytotoxicity, nutrient-deprived medium (NDM), WST-8, mean of three wells
[12] = Bacillus cereus NBRC 15305, 96-well microbroth dilution (CLSI), triplicate, 22 h, 30 °C, OD 600 nm
[13] = Kocuria rhizophila NBRC 12708, 96-well microbroth dilution (CLSI), triplicate, 22 h, 30 °C, OD 600 nm
[14] = Escherichia coli JW5503, 96-well microbroth dilution (CLSI), triplicate, 22 h, 30 °C, OD 600 nm

SMILES	MIC, BC ([1]; NBRC 15305, 22 h) [µM]	MIC, KR ([2]; NBRC 12708, 22 h) [µM]	MIC, EC (Escherichia coli JW5503; JW5503, 22 h) [µM]	pIC50 [3, 6]	pIC50 [3, 7]	pIC50 [4, 8]	pIC50 [4, 9]	pIC50 [5, 10]	pIC50 [5, 11]	MIC, BC [1, 12] [µM]	MIC, KR [2, 13] [µM]	MIC, EC (Escherichia coli JW5503; [14]) [µM]
CC[C@H](C)[C@H]1C(=O)NCCC(=O)N[C@H]([C@@H](C)CC)C(=O)N(C)[C@@H](C(C)C)C(=O)N(C)[C@@H](C)C(=O)NCCC(=O)N[C@H](CC(C)C)C(=O)N(C)[C@H]([C@@H](C)CC)C(=O)O[C@H](C)[C@H](NC(=O)[C@@H](CC(C)C)N(C)C(=O)[C@@H](NC(=O)COC)C(C)C)C(=O)NCCC(=O)N[C@H](CC(C)C)C(=O)N1C [Compound 6, theonellapeptolide Id] (Methoxyacetyl-V[dNMeL]T[βAla][dL][NMeI][βAla][d(aIle)][NMeV][NMeA][βAla][dL][dNMeaIle]; ester 3-C)	> 66	> 66	> 66	< 4.00	< 4.00	< 4.00	< 4.00	4.37	5.09	–	–	–
CC[C@H](C)[C@H]1NC(=O)CCNC(=O)[C@H](C(C)C)N(C)C(=O)[C@@H](CC(C)C)NC(=O)CCN(C)C(=O)[C@@H](NC(=O)[C@@H](CC(C)C)N(C)C(=O)[C@@H](NC(=O)COC)C(C)C)[C@@H](C)OC(=O)[C@@H]([C@@H](C)CC)N(C)C(=O)[C@@H](CC(C)C)NC(=O)CCNC(=O)[C@H](C)NC(=O)[C@H](C(C)C)N(C)C1=O [Compound 3, theonellapeptolide IIc] (Methoxyacetyl-V[dNMeL]T[NMeβAla][dL][NMeV][βAla][d(aIle)][NMeV]A[βAla][dL][dNMeaIle]; ester 3-C)	–	–	–	< 4.00	< 4.00	< 4.00	< 4.00	4.14	5.00	> 66	> 66	> 66
CC[C@H](C)[C@H]1C(=O)NCCC(=O)N[C@H]([C@@H](C)CC)C(=O)N(C)[C@@H](C(C)C)C(=O)N[C@@H](C)C(=O)NCCC(=O)N[C@H](CC(C)C)C(=O)N(C)[C@H]([C@@H](C)CC)C(=O)O[C@H](C)[C@H](NC(=O)[C@@H](CC(C)C)N(C)C(=O)[C@@H](NC(=O)COC)C(C)C)C(=O)N(C)CCC(=O)N[C@H](CC(C)C)C(=O)N1C [Compound 5, theonellapeptolide IIe] (Methoxyacetyl-V[dNMeL]T[NMeβAla][dL][NMeI][βAla][d(aIle)][NMeV]A[βAla][dL][dNMeaIle]; ester 3-C)	> 66	> 66	> 66	< 4.00	< 4.00	< 4.00	< 4.00	4.39	5.46	–	–	–
CC[C@H](C)[C@H]1NC(=O)CCNC(=O)[C@@H](C(C)C)NC(=O)[C@@H](CC(C)C)NC(=O)CCNC(=O)[C@@H](NC(=O)[C@@H](CC(C)C)N(C)C(=O)[C@@H](NC(=O)COC)C(C)C)[C@@H](C)OC(=O)[C@@H]([C@@H](C)CC)N(C)C(=O)[C@@H](CC(C)C)NC(=O)CCNC(=O)[C@H](C)NC(=O)[C@H](C(C)C)N(C)C1=O [Compound 2, theonellapeptolide IIa] (Methoxyacetyl-V[dNMeL]T[βAla][dL][dV][βAla][d(aIle)][NMeV]A[βAla][dL][dNMeaIle]; ester 3-C)	–	–	–	< 4.00	< 4.00	< 4.00	< 4.00	< 4.00	4.48	> 66	> 66	> 66
CC[C@H](C)[C@H]1NC(=O)CCNC(=O)[C@@H](C(C)C)N(C)C(=O)[C@@H](CC(C)C)NC(=O)CCNC(=O)[C@@H](NC(=O)[C@@H](CC(C)C)N(C)C(=O)[C@@H](NC(=O)COC)C(C)C)[C@@H](C)OC(=O)[C@@H]([C@@H](C)CC)N(C)C(=O)[C@@H](CC(C)C)NC(=O)CCNC(=O)[C@H](C)NC(=O)[C@H](C(C)C)N(C)C1=O [Compound 1, theonellapeptolide IIb] (Methoxyacetyl-V[dNMeL]T[βAla][dL][dNMeV][βAla][d(aIle)][NMeV]A[βAla][dL][dNMeaIle]; ester 3-C)	> 66	> 66	–	< 4.00	< 4.00	< 4.00	< 4.00	< 4.00	4.37	–	–	> 66
